Measured values as given in patent US10793885B2, “Compositions and methods for making noscapine and synthesis intermediates thereof” (priority 2013, dated 2020).

Experiments:
CYP82X1 = molecular target: T1, CYP82X1 (Papaver somniferum, UniProt I3V6B7); experiment: In vitro enzyme assay with yeast microsomal fractions containing CYP82X1 (CPR/82X1); format: biochemical; conditions: yeast microsomes (CPR/82X1), extracted ion chromatograms, FIG. 13
T1 construct: The full-length coding region of CYP82X1 was amplified using cDNA derived from total stem RNA of the Bea's Choice chemotype; FLAG; made in house; host or cells: Saccharomyces cerevisiae YPL 154C:Pep4, microsomal fraction
T1 sequence (I3V6B7 1-540): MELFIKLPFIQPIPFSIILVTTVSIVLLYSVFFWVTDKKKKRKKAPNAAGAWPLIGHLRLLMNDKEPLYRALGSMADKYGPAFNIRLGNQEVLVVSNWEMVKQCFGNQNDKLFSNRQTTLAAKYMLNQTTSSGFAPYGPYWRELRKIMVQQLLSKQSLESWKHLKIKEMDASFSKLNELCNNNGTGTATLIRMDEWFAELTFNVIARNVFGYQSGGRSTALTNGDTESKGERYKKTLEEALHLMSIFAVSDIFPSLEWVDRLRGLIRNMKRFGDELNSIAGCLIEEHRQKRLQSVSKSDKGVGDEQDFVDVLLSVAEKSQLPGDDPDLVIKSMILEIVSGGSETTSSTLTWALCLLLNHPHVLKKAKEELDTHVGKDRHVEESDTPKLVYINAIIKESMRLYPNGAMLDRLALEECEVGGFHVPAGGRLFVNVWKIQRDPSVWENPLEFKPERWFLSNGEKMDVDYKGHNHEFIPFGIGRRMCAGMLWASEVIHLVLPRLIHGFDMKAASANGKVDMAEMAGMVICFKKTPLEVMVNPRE
From the text: (§1) The full-length coding region of CYP82X1 was amplified using cDNA derived from total stem RNA of the Bea's Choice chemotype using Takara Ex Taq DNA polymerase (Fisher Scientific, Ottawa, Canada), and using a primer 5′-[…]-3′ (SEQ ID NO: 607) and reverse primer 5′-[…]-3′ (SEQ ID NO: 608). Owing to problems with heterologous expression in yeast, CYP82X2 was synthesized with the first 60 N-terminal amino acids replaced with the first 43 N-terminal amino acids from the lettuce cytochrome P450 germacrene A oxidase Nguyen, D. T. et al. J. Biol. Chem. 285, 16588-16598 (2010). For heterologous expression of Flag-tagged CYPs in yeast (Saccharomyces cerevisiae), the full-length coding regions of CYP82X1 and CYP82X2 were inserted into the NotI and SpeI restriction sites of the dual plasmid pESC-leu2d::CPR Ro, D.-K., Ouellet, M., Paradise, E. M., Burd, H., Eng, D., Paddon, C. J., Newman, J. D., & Keesling, J. D. BMC Biotech. 8, 83 (2008) yielding pESC-Leu2d::CYP82X1/CPR and pESC-Leu2d::CYP82X2/CPR. The protease-deficient yeast strain YPL 154C:Pep4 was transformed with pESC-Leu2d::CYP82X1/CPR and pESC-Leu2d::CYP82X2/CPR. Yeast culture, microsome preparation, and immunoblot analysis were performed as described previously Dang, T.-T. T. & Facchini, P. J. J. Biol. Chem. 289, 2013-2026 (2014). For heterologous expression of CXE1, CXE2, and AT1, corresponding open reading frames were amplified using cDNA derived from total stem RNA of the Bea's Choice chemotype and cloned in-frame an N-terminal His-tag sequence in the Escherichia coli expression vector pRSETA (Invitrogen, Carlsbad, Calif.). CXE1 and CXE2 were individually inserted into the SacI and HindIII restriction sties, whereas AT1 was inserted into the KpnI and HindIII sites, of pRSETA using a primer 5′-[…]-3′ (SEQ ID NO: 609) and reverse primer 5′-[…]-3′ (SEQ ID NO: 610). […] Microsomal fractions containing recombinant CYP82X1 or CYP82X2 were detected using a-FLAG antibodies, whereas recombinant CPR was detected using α-c-Myc antibodies (FIG. 12 A). […]

AT1 = molecular target: T2, AT1 (Papaver somniferum, UniProt I3PLR4); experiment: In vitro AT1 assay with purified recombinant protein; format: biochemical; conditions: native recombinant AT1, 50 μM acetyl-CoA, pH 8.0, 30° C., 15 min
T2 construct: corresponding open reading frames were amplified using cDNA derived from total stem RNA of the Bea's Choice chemotype; His-tag (pRSETA leader) (N); made in house; host or cells: Escherichia coli Rosetta (DE3) pLysS
T2 sequence (I3PLR4 1-471): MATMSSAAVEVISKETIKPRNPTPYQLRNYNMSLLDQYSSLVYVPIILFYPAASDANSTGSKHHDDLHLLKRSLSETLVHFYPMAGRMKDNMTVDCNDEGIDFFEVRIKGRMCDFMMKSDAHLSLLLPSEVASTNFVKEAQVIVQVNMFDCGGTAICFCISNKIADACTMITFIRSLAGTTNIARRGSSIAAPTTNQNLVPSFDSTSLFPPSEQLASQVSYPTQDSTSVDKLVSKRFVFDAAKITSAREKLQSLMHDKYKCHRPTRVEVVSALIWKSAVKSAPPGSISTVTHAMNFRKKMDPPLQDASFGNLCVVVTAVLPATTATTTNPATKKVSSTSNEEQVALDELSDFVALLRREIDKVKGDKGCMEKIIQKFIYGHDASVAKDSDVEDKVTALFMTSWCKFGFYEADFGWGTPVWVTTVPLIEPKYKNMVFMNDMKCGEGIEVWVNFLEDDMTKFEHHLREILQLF
From the text: (§2) The full-length coding region of CYP82X1 was amplified using cDNA derived from total stem RNA of the Bea's Choice chemotype using Takara Ex Taq DNA polymerase (Fisher Scientific, Ottawa, Canada), and using a primer 5′-[…]-3′ (SEQ ID NO: 607) and reverse primer 5′-[…]-3′ (SEQ ID NO: 608). Owing to problems with heterologous expression in yeast, CYP82X2 was synthesized with the first 60 N-terminal amino acids replaced with the first 43 N-terminal amino acids from the lettuce cytochrome P450 germacrene A oxidase Nguyen, D. T. et al. J. Biol. Chem. 285, 16588-16598 (2010). For heterologous expression of Flag-tagged CYPs in yeast (Saccharomyces cerevisiae), the full-length coding regions of CYP82X1 and CYP82X2 were inserted into the NotI and SpeI restriction sites of the dual plasmid pESC-leu2d::CPR Ro, D.-K., Ouellet, M., Paradise, E. M., Burd, H., Eng, D., Paddon, C. J., Newman, J. D., & Keesling, J. D. BMC Biotech. […] For heterologous expression of CXE1, CXE2, and AT1, corresponding open reading frames were amplified using cDNA derived from total stem RNA of the Bea's Choice chemotype and cloned in-frame an N-terminal His-tag sequence in the Escherichia coli expression vector pRSETA (Invitrogen, Carlsbad, Calif.). […] Microsomal fractions containing recombinant CYP82X1 or CYP82X2 were detected using a-FLAG antibodies, whereas recombinant CPR was detected using α-c-Myc antibodies (FIG. 12 A). […]

CYP82X2 = molecular target: T3, CYP82X2 (UniProt D5J9U8+I3PLR0); experiment: In vitro enzyme assay with yeast microsomal fractions containing CYP82X2 (CPR/82X2); format: biochemical, Papaver somniferum; conditions: yeast microsomes (CPR/82X2), extracted ion chromatograms, FIG. 13
T3 construct: the full-length coding regions of CYP82X1 and CYP82X2 were inserted into the NotI and SpeI restriction sites; FLAG; made in house; host or cells: Saccharomyces cerevisiae YPL 154C:Pep4, microsomal fraction
T3 sequence (D5J9U8+I3PLR0 with tags, fused parts or gaps): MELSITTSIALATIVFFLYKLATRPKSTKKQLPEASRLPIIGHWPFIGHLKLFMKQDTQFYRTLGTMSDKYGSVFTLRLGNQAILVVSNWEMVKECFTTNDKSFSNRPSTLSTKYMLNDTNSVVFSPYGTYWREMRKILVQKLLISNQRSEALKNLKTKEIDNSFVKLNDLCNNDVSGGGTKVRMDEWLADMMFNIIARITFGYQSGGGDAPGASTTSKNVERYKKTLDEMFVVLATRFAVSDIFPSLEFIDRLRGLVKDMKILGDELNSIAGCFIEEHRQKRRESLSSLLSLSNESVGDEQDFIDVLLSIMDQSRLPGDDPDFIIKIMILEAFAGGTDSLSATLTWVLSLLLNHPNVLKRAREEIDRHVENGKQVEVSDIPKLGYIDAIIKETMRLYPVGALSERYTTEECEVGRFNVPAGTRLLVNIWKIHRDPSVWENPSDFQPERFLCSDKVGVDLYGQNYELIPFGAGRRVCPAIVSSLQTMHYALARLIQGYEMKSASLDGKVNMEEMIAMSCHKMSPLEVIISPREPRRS
From the text: as §1

CXE2 = molecular target: T4, CXE2 (Papaver somniferum, UniProt A0A0A1EQ07); experiment: In vitro CXE2 assay with purified recombinant protein; format: biochemical; conditions: E. coli produced CXE2
T4 construct: corresponding open reading frames were amplified using cDNA derived from total stem RNA of the Bea's Choice chemotype; His-tag (pRSETA leader) (N); made in house; host or cells: Escherichia coli Rosetta (DE3) pLysS
T4 sequence (A0A0A1EQ07 1-313): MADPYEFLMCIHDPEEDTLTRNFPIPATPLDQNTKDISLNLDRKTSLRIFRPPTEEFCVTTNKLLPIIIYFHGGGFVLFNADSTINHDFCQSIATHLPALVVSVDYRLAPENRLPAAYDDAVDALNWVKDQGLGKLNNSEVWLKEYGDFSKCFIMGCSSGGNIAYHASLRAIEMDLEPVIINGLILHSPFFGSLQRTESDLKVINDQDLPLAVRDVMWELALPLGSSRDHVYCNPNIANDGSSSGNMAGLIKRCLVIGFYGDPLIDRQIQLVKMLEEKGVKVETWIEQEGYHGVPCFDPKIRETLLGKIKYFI
From the text: as §2

CXE1 = molecular target: T5, CXE1 (Papaver somniferum, UniProt I3PLR2); experiment: In vitro CXE1 assay with purified recombinant protein; format: biochemical; conditions: native recombinant CXE1, pH 8.0, 30° C., 15 min
T5 construct: corresponding open reading frames were amplified using cDNA derived from total stem RNA of the Bea's Choice chemotype; His-tag (pRSETA leader) (N); made in house; host or cells: Escherichia coli Rosetta (DE3) pLysS
T5 sequence (I3PLR2 1-320): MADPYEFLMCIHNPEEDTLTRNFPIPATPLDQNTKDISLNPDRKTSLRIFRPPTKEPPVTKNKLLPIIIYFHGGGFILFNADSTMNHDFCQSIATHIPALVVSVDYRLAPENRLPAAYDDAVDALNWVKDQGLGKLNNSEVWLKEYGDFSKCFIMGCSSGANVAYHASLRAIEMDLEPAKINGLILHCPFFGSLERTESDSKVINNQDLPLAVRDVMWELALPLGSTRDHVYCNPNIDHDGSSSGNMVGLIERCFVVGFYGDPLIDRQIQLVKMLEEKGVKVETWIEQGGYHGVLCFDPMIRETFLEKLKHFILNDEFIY
From the text: as §2

SMILES | conversion as substrate by CYP82X1 (CYP82X1) | conversion as substrate by AT1 (AT1) | conversion as substrate by CYP82X2 (CYP82X2) | conversion as substrate by CXE2 (CXE2) | conversion as substrate by CXE1 (CXE1)
COc1ccc2c(c1OC)C[N+]1(C)CCc3cc4c(c(O)c3C1C2O)OCO4 [(S)-1,13-dihydroxy-N-methylcanadine] | No products were detected | forming (S)-1-hydroxy-13-O-acetyl-N-methylcanadine | No products were detected |  | 
COc1ccc(C(OC(C)=O)C2c3c(cc4c(c3OC)OCO4)CCN2C)c(C=O)c1OC (centres unmarked) [3-O-acetylpapaveroxine] |  |  |  | form narcotine hemiacetal | yielding papaveroxine
